Values quoted from earlier work in patent US20190328719A1, “METHODS OF TREATING DEVELOPMENTAL DISORDERS AND/OR SEIZURE DISORDERS WITH FLUPIRTINE” (Ovid Therapeutics Inc., priority 2016, published 2019).
Where a name gives a salt, the structure may show the parent alone. Read-outs that look alike come from different tables or passages of the source.

Legend:
[1] = cited from earlier work; for plasma elimination half-life: healthy young volunteers, single dose
[2] = cited from earlier work
[3] = cited from earlier work; remark: listed apart in the source
[4] = three-month efficacy study, insomnia; cited from earlier work
[5] = patients with a history of drug abuse; cited from earlier work
[6] = cited from earlier work; for Cmax (without correction for Cmin): 14 days of administration
[7] = cited from earlier work; remark: listed apart in the source
[8] = dose range 200-400 mg three times daily

## CCOC(=O)Nc1ccc(NCc2ccc(F)cc2)nc1N [flupirtine maleate]
[1]; rectal, flupirtine maleate 150 mg
  Cmax: about 0.89 mg/L
[2]; listed as maleate salt
  water solubility: water soluble

## OC(c1ccccc1)(c1ccccc1)C1CCCCN1 (stereo not drawn) [pipradrol]
[3]
  effects of high doses: uncoordinated activity and ataxia, followed by tremors and clonic convulsions

## Oc1noc2c1CCNC2 [gaboxadol, 4,5,6,7-tetrahydroisoxazolo [5,4-c]pyridine-3-ol]
[4]
  effects in sleep onset and sleep maintenance: failed to show significant effects in sleep onset and sleep maintenance
[5]
  psychiatric adverse events: steep increase in psychiatric adverse events

## CCOC(=O)Nc1ccc(NCc2ccc(F)cc2)nc1N [flupirtine]
[1]; 75 or 150 mg at 12 hour intervals
  time to steady-state plasma concentrations: 2 days
[1]; intravenous
  plasma elimination half-life: about 8.5 hours
  half-life following intravenous administration: about 1.8 hours
[1]; oral
  plasma elimination half-life: ~9.6 h
[1]; rectal
  plasma elimination half-life: ~10.7 h
[1]; range of 50 to 300 mg
  relation of plasma concentrations to dose: linearly related to dose
[1]; rectal dose, in comparison with intravenous flupirtine tartrate 80 mg
  Bioavailability: about 72.5%
[1]; single oral dose 100 mg or 200 mg, healthy volunteers
  time until it appears in the plasma: 15 to 30 min
[1]; single oral dose 100 mg
  peak plasma concentration (Cmax): approximately 0.8 mg/L
[1]; single oral dose 200 mg
  peak plasma concentration (Cmax): ~2000 ng/mL
[2]
  water solubility: poorly water soluble

## CC(=O)[C@H]1CC[C@H]2[C@@H]3CC[C@H]4C[C@](C)(O)CC[C@]4(C)[C@H]3CC[C@]12C [ganaxolone]
[6]; 50 mg group
  Cmin: 2.34 ng/mL
  Cmax (without correction for Cmin): 32 ng/mL
[6]; 200 mg group
  Cmin: 23.79 ng/mL
  Cmax (without correction for Cmin): 106 ng/mL
[6]; 500 mg group
  Cmin: 56.71 ng/mL
  Cmax (without correction for Cmin): 376 ng/mL
[6]; in vivo
  AUC and Cmax with increasing dose: linear and proportional increase
  half-life: about 20 hours
[6]; single 900 mg dose
  Cmax: 293 ± 63.8 ng/mL

## CCOC(=O)Nc1ccc(NCc2ccc(F)cc2)cc1N [retigabine, N-[2-amino-4-(4-fluorobenzylamino)-phenyl] carbamic acid ethyl ester]
[7]; [8]
  between-subject variability: 35-50%
  linearity of pharmacokinetics: linear
[7]; in vivo
  elimination half-lives (t/2): 7 to 11 h
  median plasma half-life: 6 to 8 h
[7]; relative to an intravenous dose
  Absolute oral bioavailability: approximately 60%
